Source: the NIST ThermoML archive (doi:10.1021/je201334p)

Legend:
[1] = xn = mol fraction of the nth substance listed; settings: 308.15 K, 101 kPa, Liquid; for speed of sound: Sing-around technique in a fixed-path interferometer; for mass density: Vibrating tube method
[2] = refractive index (Na D-line) (dimensionless); xn = mol fraction of the nth substance listed; settings: 101 kPa, Liquid, Standard Abbe refractometry

CCCC[N+]1(C)CCCC1.N#CN=C=[N-] [1-butyl-1-methylpyrrolidinium dicyanamide] + O
[1]
Settings	mass density [kg/m3]	speed of sound [m/s]
x2 = 0	1007.93	–
x2 = 0.096	1007.63	–
x2 = 0.1277	1007.52	–
x2 = 0.2116	1007.23	–
x2 = 0.3077	1006.85	–
x2 = 0.3942	1006.5	–
x2 = 0.4952	1006.03	–
x2 = 0.5023	1005.99	–
x2 = 0.6047	1005.42	–
x2 = 0.6137	1005.35	–
x2 = 0.7061	1004.54	1786.1
x2 = 0.7177	1004.4	1785.6
x2 = 0.7571	1003.86	1782.1
x2 = 0.8208	1002.57	1769.4
x2 = 0.8468	1001.84	1756.5
x2 = 0.9034	999.84	1724.2
x2 = 0.904	999.81	1723.6
x2 = 0.9492	997.62	1666.7
x2 = 0.9507	997.53	1664.3
x2 = 0.9517	997.47	1662.5

refractive index, [2]
Settings	288.15 K	298.15 K	308.15 K
x2 = 0	1.49968	1.49681	1.49392
x2 = 0.096	1.49811	1.49519	1.49222
x2 = 0.1277	1.49752	1.49459	1.49162
x2 = 0.2116	1.4957	1.49278	1.48982
x2 = 0.3077	1.49322	1.49032	1.4871
x2 = 0.3942	1.49044	1.48751	1.48432
x2 = 0.4952	1.48621	1.48329	1.47987
x2 = 0.5023	1.4858	1.48284	1.47973
x2 = 0.6047	1.4797	1.47674	1.47345
x2 = 0.6137	1.47901	1.4761	1.47289
x2 = 0.7061	1.47041	1.46748	1.46424
x2 = 0.7177	1.46905	1.46612	1.46281
x2 = 0.7571	1.46368	1.46078	1.45746
x2 = 0.8208	1.45158	1.4487	1.44577
x2 = 0.8468	1.44481	1.44172	1.43884
x2 = 0.9034	1.42419	1.42145	1.41909
x2 = 0.904	1.42386	1.42118	1.41891
x2 = 0.9492	1.39597	1.39362	1.39175
x2 = 0.9507	1.39472	1.39249	1.39055
x2 = 0.9517	1.3939	1.39161	1.3897
